# Laboratory results published in PMC12189671, “Antioxidant Activity and Cytotoxicity Evaluation of New Catechol Hydrazinyl-Thiazole Derivatives as Potential Protectors in Retinal Degenerative Processes” (Antioxidants, 2025).
# How the values were obtained:
# [1] = test system: OR51E2; parameters: method as in PMID 29249973; settings: RPE cells; cited from earlier work
# [2] = DPPH radical scavenging assay; settings: 30 min incubation, λ = 517 nm
# Experimental: The DPPH^• radical scavenging assay is based on transferring a hydrogen atom from the tested compounds to the violet stable free radical DPPH^• (2,2-diphenyl-1-picrylhydrazyl radical), converting it into a yellow compound. The assay was conducted using tested compounds and references in concentrations ranging from 2 to 50 µM, according to our adaptation of the protocol of Brand-Williams et al.. The absorbance of the samples is given by the remaining unreacted reagent radical, and it is inversely proportional to the amount of DPPH^• neutralized. The absorbance of the samples was measured at λ = 517 nm after 30 min of incubation in the dark at room temperature. The DPPH^• radical scavenging activity of the compounds was calculated using Equation (1):(1) DPPH^• scavenging (%)=control absorbance−sample absorbance/control absorbance×100
# [3] = Indirect 1O2 scavenging assay (ICG photo-generator, DPBF probe)
# Experimental: The ^1O2 scavenging assay was employed using a previously established indirect protocol from our research group. In brief, indocyanine green (ICG), from Sigma–Aldrich (St. Louis, MO, USA), was utilized to induce ^1O2 production in the presence of 5a and 5b. Ascorbic acid was used as a reference antioxidant agent, and a blank sample without ^1O2 scavengers was prepared. The reaction mixtures were exposed to a Micro Raman System R-3000 (Photonitech, Singapore, Singapore) laser diode,(λ = 785 nm, 190 mW power) for a total time of 100 s. To evaluate the ^1O2 scavenging activity of the compounds 5a,b, the degradation of 1,3-diphenylisobenzofuran (DPBF), obtained from Alfa Aesar (Haverhill, MA, USA), was measured using a V-730 spectrophotometer (Jasco International Co., Ltd., Tokyo, Japan). To determine the ^1O2 quantum yields (Φ(^1O2)) of ICG in the presence of the studied molecules, the following equation was used: Φ(^1O2) = Φ(^1O2) ^ICG × ((S × F^ICG)/(S^ICG × F)), where S represents the slope of the absorbance difference of DPBF over time, F is the absorption correction factor (F = 1 − 10^−OD), and OD is the optical density at the excitation wavelength, λ = 785 nm. The Φ(^1O2) equal to 15.0% of free ICG was used as a reference. The concentrations utilized in the experiment were 0.1 mM for DPBF and 10^−5 M for ICG and the ^1O2 scavengers. Free DPBF was used as a control.
# The efficacy of compounds 5a,b against ^1O2 was assessed using an indirect approach. ICG was used as a photo-induced ^1O2 generator alongside DPBF, serving as an indirect chemical probe capable of characterizing ^1O2 release in solution. This setup allowed us to evaluate the ^1O2 scavenging capacity of the tested molecules and compare their activity to a reference compound, specifically ascorbic acid. The samples were exposed to 785 nm laser radiation, and at 10-s intervals after irradiation, their UV-Vis absorption spectra were measured and analyzed (Figure 9). Subsequently, we determined the ^1O2 quantum yields (Φ(^1O2)) of ICG in the presence of 5a,b and ascorbic acid, using the Φ(^1O2) of free ICG of 15.0% as reference.
# [4] = test system: rat microsomal membrane lipid peroxidation; test: Lipid peroxidation inhibition assay (LPI), 2-thiobarbituric acid method; type: biochemical; settings: ascorbic acid/Fe^2+ system, 37 °C, 45 min
# Experimental: Rat liver microsomes were homogenized in saline, and the resulting homogenates were centrifuged at 9000× g for 20 min at 4 °C to remove cell debris. The supernatant underwent ultracentrifugation at 110,000× g for 40 min at 4 °C. The pelleted microsomal fraction was subsequently washed with saline via another round of ultracentrifugation under identical conditions. Thereafter, the pellet was resuspended in Tris-HCl buffer (pH 7.4) to achieve a concentration equivalent to 0.5 g liver per mL and was stored until further analysis (at −80 °C). For the assay, the microsomal preparation was thermally inactivated by incubation at 90 °C for 90 s, then homogenized again and diluted to a final concentration equivalent to 4 mM fatty acid equivalents. […] All mixtures were incubated at 37 °C under air with continuous shaking. […] This was followed by heating at 90 °C for 20 min and centrifugation at 3000 rpm for 15 min. As a result of the breakdown of unsaturated fatty acids, malondialdehyde reacts with the 2-thiobarbituric acid to produce a pink compound due to the formation of a Schiff base. The extent of lipid peroxidation was measured spectrophotometrically at 535/600 nm, which is proportional to the amount of the chromogen reaction product formed between 2-thiobarbituric acid and malondialdehyde. The determinations were performed in triplicate, and the standard deviation was within ±10% of the mean value.
# [5] = ABTS radical cation decolorization assay; settings: 10 min incubation, pH 7.4, λ = 734 nm
# Experimental: The ABTS^•+ (2,2′-azinobis-(3-ethylbenzothiazoline-6-sulfonic acid) decolorization assay, based on the method of Re et al., was performed in the concentration range of 1 to 25 µM according to protocols previously reported by our group. The reagent was prepared in a 0.1 M potassium phosphate buffer (pH 7.4) and activated overnight with MnO2 [89]. Prior to use, the stability of the ABTS^•+ reagent was verified by checking its absorbance at λ = 734 nm over one hour, ensuring a consistent absorption of around 0.7. The mixtures were incubated for 10 min in the dark at room temperature. The absorbance of the samples is given by the remaining unreacted reagent radical, and it is inversely proportional to the amount of ABTS^•+ neutralized. The ABTS^•+ scavenging activity of compounds was calculated using Equation (2).(2) ABTS^•^+ scavenging (%)=control absorbance−sample absorbance/control absorbance×100
# [6] = Ferrous ions chelation assay (ferrozine)
# Experimental: Solutions of the tested compounds or ethylenediaminetetraacetic acid disodium salt (EDTA-Na2), used as a positive control, were thoroughly mixed with 0.5 mL of FeSO4 (0.125 mM) and 0.5 mL of ferrozine (0.315 mM). After a 10-min incubation in the dark at room temperature, the absorbance was measured at λ = 562 nm.
# [7] = parameters: method as in PMID 30881661; settings: free ICG, used as reference; cited from earlier work
smiles,measurement,setting,value
CC(=O)/C=C/C1=C(C)CCCC1(C)C [β-ionone],threshold concentration to trigger a cellular response,[1],under 10 µM
"O=C1O[C@H]([C@@H](O)CO)C(O)=C1O [Ascorbic acid, ascorbic acid, reference compound]",IC50,[2],50.2 µM
same,^1O2 quantum yield Φ(^1O2) of ICG in the presence of the scavenger,"[3]; 10^−5 M ICG and scavenger, 785 nm laser, 100 s",9.4%
same,reduction of ^1O2 quantum yield of ICG compared to ICG alone,[3]; addition of scavenger to ICG,5.6%
"Cc1c(C)c2c(c(C)c1O)CCC(C)(C(=O)O)O2 (stereo not shown) [Trolox, reference compound]",IC50,[2],35.8 µM
same,IC50,[4],25 µM
same,IC50,[5],15.9 µM
"O=C([O-])CN(CCN(CC(=O)O)CC(=O)O)CC(=O)[O-].[Na+].[Na+] [EDTA-Na2, ethylenediaminetetraacetic acid disodium salt, reference compound]",% of ferrous ions chelation,[6]; 50 nM,11.71%
same,% of ferrous ions chelation,[6]; 100 nM,20.00%
same,% of ferrous ions chelation,[6]; 150 nM,36.37%
same,% of ferrous ions chelation,[6]; 175 nM,61.98%
same,% of ferrous ions chelation,[6]; 200 nM,86.53%
"CC1(C)C(/C=C/C=C/C=C/C=C2\N(CCCCS(=O)(=O)O)c3ccc4ccccc4c3C2(C)C)=[N+](CCCCS(=O)(=O)[O-])c2ccc3ccccc3c21 [ICG, indocyanine green]",^1O2 quantum yield Φ(^1O2) of ICG alone,[7],15%
